For the assay, the target named is PD-1/PD-L1 interaction (PD-1-Ig / PD-L1-His) (Homo sapiens (Human), UniProt Q9NZQ7). The assay is described as follows: PD-1/PD-L1 Homogenous Time-Resolved Fluorescence (HTRF) binding assay. As to conditions: PD-1/PD-L1 HTRF binding assay; value given as range class; read-out: Range or IC50. For orientation: TR-FRET usually uses a lanthanide donor and a delayed reading to cut background.

Five compounds from patent publication US10590105B2, “1,3-dihydroxy-phenyl derivatives useful as immunomodulators” (BRISTOL-MYERS SQUIBB COMPANY, priority 2016, dated 2020) can be followed below.

One may read the IC50 as the concentration at which inhibition is half-maximal.

The structures appear in SMILES notation.

PD-1/PD-L1 interaction (PD-1-Ig / PD-L1-His), sequence (Q9NZQ7 other isoform, or with tags, fused parts or gaps): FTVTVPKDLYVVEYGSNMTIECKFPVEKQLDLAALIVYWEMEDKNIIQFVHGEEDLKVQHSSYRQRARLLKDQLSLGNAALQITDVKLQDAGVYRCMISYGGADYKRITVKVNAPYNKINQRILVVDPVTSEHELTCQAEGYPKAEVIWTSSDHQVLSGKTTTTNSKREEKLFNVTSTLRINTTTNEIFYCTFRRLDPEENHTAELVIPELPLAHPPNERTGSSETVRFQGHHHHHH

For `Cc1c(OCCCN2CC[C@@H](O)C2)cccc1-c1ccnc(COc2cc(OCc3cncc(C#N)c3)c(CN[C@@](C)(CO)C(=O)O)cc2Cl)c1C` [Example 2012, (S)-2-((5-chloro-2-((5-cyanopyridin-3-yl)methoxy)-4-((4-(3-(3-((R)-3-hydroxypyrrolidin-1-yl)propoxy)-2-methylphenyl)-3-methylpyridin-2-yl)methoxy)benzyl)amino)-3-hydroxy-2-methylpropanoic acid], the IC50 was 1 to 10 nM.
For the compound `CCC(CO)(CO)NCc1cc(Cl)c(OCc2nccc(-c3cccc(OCCCN4CC[C@@H](O)C4)c3C)c2C)cc1OCc1cncc(C#N)c1` [Example 2013, (R)-5-((4-chloro-2-(((1-hydroxy-2-(hydroxymethyl)butan-2-yl)amino)methyl)-5-((4-(3-(3-(3-hydroxypyrrolidin-1-yl)propoxy)-2-methylphenyl)-3-methylpyridin-2-yl)methoxy)phenoxy)methyl)nicotinonitrile], the IC50 was in the range of 1 to 10 nM.
On to `Cc1c(OCCCN2CCCCC2)cccc1-c1ccnc(COc2cc(OCc3cncc(C#N)c3)c(CN3CCCC[C@H]3C(=O)O)cc2Cl)c1C` [Example 2014, (S)-1-(5-chloro-2-((5-cyanopyridin-3-yl)methoxy)-4-((3-methyl-4-(2-methyl-3-(3-(piperidin-1-yl)propoxy)phenyl)pyridin-2-yl)methoxy)benzyl)piperidine-2-carboxylic acid], for which the IC50 is 11 to 150 nM.
For `Cc1c(OCCCN2CCCCC2)cccc1-c1ccnc(COc2cc(OCc3cncc(C#N)c3)c(CN[C@@](C)(CO)C(=O)O)cc2Cl)c1C` [Example 2015, (S)-2-((5-chloro-2-((5-cyanopyridin-3-yl)methoxy)-4-((3-methyl-4-(2-methyl-3-(3-(piperidin-1-yl)propoxy)phenyl)pyridin-2-yl)methoxy)benzyl)amino)-3-hydroxy-2-methylpropanoic acid] the value was 1 to 10 nM.
For `CCC(CO)(CO)NCc1cc(Cl)c(OCc2nccc(-c3cccc(OCCCN4CCCCC4)c3C)c2C)cc1OCc1cncc(C#N)c1` [Example 2016, 5-((4-chloro-2-(((1-hydroxy-2-(hydroxymethyl)butan-2-yl)amino)methyl)-5-((3-methyl-4-(2-methyl-3-(3-(piperidin-1-yl)propoxy)phenyl)pyridin-2-yl)methoxy)phenoxy)methyl)nicotinonitrile] the value was 1 to 10 nM.
